Assay [1] concerns LPS-induced TNFα in monocytes. Put plainly: Monocytes assay: LPS-triggered TNFα (ELISA). The format is cell-based, human. Particulars: Homo sapiens, Monocyte, LPS-triggered TNFα inhibition. As for the experimental part:
(§1) This assay evaluates illustrative compounds of the invention for their inhibition of LPS-induced TNFα and LPS triggered IL-10 secretion in monocytes.
(§2) PBMCs are isolated from human blood samples (buffycoats). The buffy coat is aseptically transferred into a 50 mL Falcon tube, and diluted 1/2 in PBS. Falcon tubes are filled with 20 mL Lymphoprep™, on top of which 25 mL of the buffy coat is carefully added, tubes are centrifuged for 35 min at 400 g in temperature controlled centrifuge, without brake, at 25° C. PBMCs are aspirated from the white interface layer between sample and Lymphoprep™. PBMCs are washed five times in PBS.
(§3) PBMCs are centrifuged at 300×g for 10 min and resuspended at a density of 1.0*10^7 cells/80 μL Miltenyi buffer (PBS, pH 7.4, 1% FBS, 2 mM EDTA).
(§4) Starting from this point of the protocol all steps are performed on ice. 20 μL of CD14+ micro-beads are added per 1.0*10^7 cells, the tube is mixed and incubated for 15 min in the fridge at 4° C. Cell suspension volume is adjusted to total volume of 100 mL using Miltenyi buffer, mixed gently and subsequently centrifuged for 10 min at 300×g. Supernatant is discarded and cell pellet is resuspended in 12 mL of Miltenyi buffer.
(§5) Four LS columns are placed in the MACS Separator (magnet) from Miltenyi Biotec, and are prewet by rinsing with 3 mL of MACS buffer per column. Three mL of cell suspension is added onto the column (max 1*10^8 of labelled cells/column), and columns are subsequently washed 3 times with 3 mL of Miltenyi buffer.
(§6) The columns are removed from the magnets, and 5 mL of Miltenyi buffer are added to the column to flush out the CD14+ fraction by pushing the plunger into the column. The flushed fractions are collected in a fresh 50 mL Falcon and volume is adjusted to 30 mL using Miltenyi buffer, cells are centrifuged for 10 min at 300×g. The obtained cell pellet is resuspended in 10 mL RPMI w/o FBS, and cell density is determined using a hematologic analyser (Sysmex XS-500i).
(§7) A compound dilution plate is made in 100% DMSO by 3-fold dilution of 10 mM stock solution. An intermediate dilution plate (10× final concentration) is made by diluting the compound dilution plate 50-fold in RPMI medium.
(§8) 10 μL of the 10× final concentration compound is added to the cells and incubated for 1 h at 37° C. before addition of trigger. No trigger conditions/trigger conditions are spiked with equal final DMSO concentrations of 0.2% DMSO. 10 μL of 10×LPS (final conc. 200 ng/mL) solution are added to all wells except for the ‘no trigger wells’ where 10 μL medium is added. Supernatant is collected after 4 h of LPS triggering.
The plate is then washed once with PBST (PBS+0.05% Tween20) and once with PBS followed by the addition of 100 μL of blocking buffer (1% Bovine Serum Albumin (BSA)-5% Sucrose) and plates are sealed and incubated for at least 4 h at RT. After washing the plate once with PBST and once with PBS, […]. Plates are washed twice with PBST, and once with PBS, after which 35 μL of the detection antibody is added (final concentration 0.25 μg/mL diluted in dilution buffer) and plates are incubated for at least 2 h at RT. Plates are washed twice with PBST, and once with PBS, whereafter 35 μL of Strep-HRP conjugate (0.5 μg/mL final concentration diluted in dilution buffer) is added. Plates are incubated in the dark, at RT for at least 45 min but no longer than 1 h. Plates are washed twice with PBST, and once with PBS. Thereafter, 50 μL of luminol substrate is added to each well (prepared according to manufacturer's instructions), and incubated for 5 min at RT protected from light.
To measure the inhibition of LPS induced TNFα, percentage inhibition (PIN) values are calculated for all concentrations tested, compared to controls.
Background: In an ELISA, binding on a coated surface is turned into a signal by an enzyme label.

Assay [2] deals with LPS triggered IL-10 secretion in monocytes. Put plainly: Monocytes assay: LPS-triggered IL-10 (ELISA). The format is cell-based, human. Particulars: Homo sapiens, Monocyte, LPS-triggered IL-10 induction, median maximal fold change vs LPS only, read-out: IL-10 FCmax median. How it is done: as §1, §2, §3, §4, §5, §6, §7, §8
A Lumitrac 600 Greiner 384-well plate is coated with 40 μL of capture antibody (final concentration of 1 μg/mL in 1×PBS) and stored overnight at 4° C. The next day the plate is washed three times with PBST (PBS+0.05% Tween20) and once with PBS followed by the addition of 100 μL of blocking buffer (1% BSA-5% Sucrose) and plates are sealed and incubated for at least 4 h at RT. After washing the plate once with PBST and once with PBS, 40 μL of standard or sample are added (IL-10 standard curve is prepared using a 1/2 serial dilution starting from 2000 pg/mL; dilutions are made in dilution buffer (PBS+1% BSA)). […] Plates are washed twice with PBST, and once with PBS, whereafter 35 μL of Strep-HRP conjugate (0.5 μg/mL final concentration diluted in dilution buffer) is added. Plates are incubated in the dark, at RT for at least 45 min but no longer than 1 h. Plates are washed twice with PBST, and once with PBS. Thereafter, 50 μL of luminol substrate is added to each well (prepared according to manufacturer's instructions), and incubated for 5 min at RT protected from light.
To quantify these increases, fold changes (FC) compared to ‘LPS only’ are calculated for each concentration tested and the maximal FC is calculated (IL-10 FCmax): […]

The next assay has as its target T1, SIK1 (Homo sapiens, UniProt P57059).
T1 construct: purchased Carna Biosciences 02-131
Briefly: ADP-Glo kinase assay, SIK1. The class given is biochemical. In outline: (§9)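 Kinase reactions ran 120 min at room temperature after ATP addition to enzyme-substrate mix. Remaining ATP was depleted (40 min) and ADP converted to ATP for luciferase detection (30 min), signal rising with activity. Final 1% DMSO and 10 μM staurosporine served as negative and positive controls.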
(ADP-Glo turns the ADP formed in a reaction into a luminescent signal.)

A further assay addresses T2, SIK2 (Homo sapiens, UniProt Q9H0K1).
T2 construct: purchased ThermoFisher Scientific PV4792
Put plainly: ADP-Glo kinase assay, SIK2. The class given is biochemical. Summed up:
as §9

For the next assay, the target named is T3, SIK3 (Homo sapiens, UniProt Q9Y2K2).
T3 construct: purchased SignalChem S12-11G-100
Put plainly: ADP-Glo kinase assay, SIK3. The class given is biochemical. In outline:
as §9

Assay [3] concerns LPS-induced TNFα in monocyte-derived macrophages. Briefly: MdM assay: LPS-triggered TNFα (ELISA). The format is cell-based, human. The settings on record: Macrophage; human MdM; LPS 200 ng/mL; supernatant after 20 h; inhibition of TNFα; read-out: TNFα EC50. How it is done:
This assay evaluates illustrative compounds of the invention for their inhibition of LPS-induced TNFα and LPS triggered IL-10 secretion in monocyte-derived macrophages. PBMCs are isolated from human blood samples (buffycoats). The buffy coat is aseptically transferred into a 50 mL Falcon tube, and diluted 1/2 in PBS. Falcon tubes are filled with 20 mL LymphoprepTM, on top of which 25 mL of the buffy coat is carefully added, tubes are centrifuged for 35 min at 400 g in temperature controlled centrifuge, without brake, at 25° C. PBMCs are aspirated from the white interface layer between sample and LymphoprepTM. PBMCs are washed five times in PBS. […] PBMCs are centrifuged at 300×g for 10 min and resuspended at a density of 1.0*10^7 cells/80 μL Miltenyi buffer (PBS, pH 7.4, 1% FBS, 2 mM EDTA). Starting from this point of the protocol all steps are performed on ice. 20 μL of CD14+ micro-beads are added per 1.0*10^7 cells, the tube is mixed and incubated for 15 min in the fridge at 4° C. Cell suspension volume is adjusted to total volume of 100 mL using Miltenyi buffer, mixed gently and subsequently centrifuged for 10 min at 300×g. Supernatant is discarded and cell pellet is resuspended in 12 mL of Miltenyi buffer. Four LS columns are placed in the MACS Separator (magnet) from Miltenyi Biotec, and are prewet by rinsing with 3 mL of MACS buffer per column. Three mL of cell suspension is added onto the column (max 1*10^8 of labelled cells/column), and columns are subsequently washed 3 times with 3 mL of Miltenyi buffer. The columns are removed from the magnets, and 5 mL of Miltenyi buffer are added to the column to flush out the CD14+ fraction by pushing the plunger into the column. The flushed fractions are collected in a fresh 50 mL Falcon and volume is adjusted to 30 mL using Miltenyi buffer, cells are centrifuged for 10 min at 300×g. The obtained cell pellet is resuspended in 10 mL RPMI w/o FBS, and cell density is determined using a hematologic analyser (Sysmex XS-500i). […] On day 10, MdMs are triggered and compound is added. A compound dilution plate is made in 100% DMSO by 3-fold dilution of 10 mM stock solution. An intermediate dilution plate (10× final concentration) is made by diluting the compound dilution plate […] in RPMI medium. Medium is carefully removed from cell plates using multichannel pipette, and replaced by 80 μL fresh medium. 10 μL of the 10× final concentration compound is added to the cells and incubated for 1 hour at 37° C. before addition of trigger. No trigger conditions/trigger conditions are spiked with equal final DMSO concentrations of 0.2% DMSO. 10 μL of 10×LPS (final conc. 200 ng/mL) solution are added to all wells except for the 'no trigger wells' where 10 μL medium is added. Supernatant is collected after 2 h (IL-10 determination) and after 20 h (TNFα determination) of LPS triggering. […] The plate is then washed once with PBST (PBS+0.05% Tween20) and once with PBS followed by the addition of 100 μL of blocking buffer (1% Bovine Serum Albumin (BSA) -5% Sucrose) and plates are sealed and incubated for at least 4 h at RT. After washing the plate once with PBST and once with PBS, 40 μL of standard or sample are added (TNFα standard curve is prepared using a 1/2 serial dilution starting from 16000 pg/mL; dilutions are made in dilution buffer (PBS+1% BSA)). Plates are washed twice with PBST, and once with PBS, after which 35 μL of the detection antibody is added (final concentration 0.25 μg/mL diluted in dilution buffer) and plates are incubated for at least 2 h at RT. Plates are washed twice with PBST, and once with PBS, where after 35 μL of Strep-HRP conjugate (0.5 μg/mL final concentration diluted in dilution buffer) is added. […] Plates are washed twice with PBST, and once with PBS. Thereafter, 50 μL of luminol substrate is added to each well (prepared according to manufacturer's instructions), and incubated for 5 min at RT protected from light.

T2 sequence (Q9H0K1 whole entry): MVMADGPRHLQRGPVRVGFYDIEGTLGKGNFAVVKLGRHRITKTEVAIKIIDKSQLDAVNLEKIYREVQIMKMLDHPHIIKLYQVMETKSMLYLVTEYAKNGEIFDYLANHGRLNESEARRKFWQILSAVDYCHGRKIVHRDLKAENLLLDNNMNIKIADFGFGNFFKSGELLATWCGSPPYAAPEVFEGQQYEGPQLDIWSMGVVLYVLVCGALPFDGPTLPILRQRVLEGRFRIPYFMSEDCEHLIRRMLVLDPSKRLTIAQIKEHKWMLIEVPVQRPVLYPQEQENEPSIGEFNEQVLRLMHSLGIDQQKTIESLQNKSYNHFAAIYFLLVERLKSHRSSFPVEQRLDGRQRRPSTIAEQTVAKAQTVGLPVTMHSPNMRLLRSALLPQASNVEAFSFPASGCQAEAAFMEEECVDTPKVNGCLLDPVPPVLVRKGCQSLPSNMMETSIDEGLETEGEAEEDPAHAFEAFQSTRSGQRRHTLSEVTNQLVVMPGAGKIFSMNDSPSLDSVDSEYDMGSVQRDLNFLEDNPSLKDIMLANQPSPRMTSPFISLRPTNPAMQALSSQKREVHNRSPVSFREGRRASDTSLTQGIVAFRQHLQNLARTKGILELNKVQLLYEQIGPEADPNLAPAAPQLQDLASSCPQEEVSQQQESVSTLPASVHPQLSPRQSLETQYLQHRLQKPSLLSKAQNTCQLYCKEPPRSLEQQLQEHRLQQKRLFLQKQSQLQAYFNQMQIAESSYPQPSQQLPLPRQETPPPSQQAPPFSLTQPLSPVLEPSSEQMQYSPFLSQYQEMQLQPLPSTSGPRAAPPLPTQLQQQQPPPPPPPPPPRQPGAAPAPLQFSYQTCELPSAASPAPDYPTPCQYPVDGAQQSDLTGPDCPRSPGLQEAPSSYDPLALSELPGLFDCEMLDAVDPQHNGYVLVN
T3 sequence (Q9Y2K2 59-365 limits assumed): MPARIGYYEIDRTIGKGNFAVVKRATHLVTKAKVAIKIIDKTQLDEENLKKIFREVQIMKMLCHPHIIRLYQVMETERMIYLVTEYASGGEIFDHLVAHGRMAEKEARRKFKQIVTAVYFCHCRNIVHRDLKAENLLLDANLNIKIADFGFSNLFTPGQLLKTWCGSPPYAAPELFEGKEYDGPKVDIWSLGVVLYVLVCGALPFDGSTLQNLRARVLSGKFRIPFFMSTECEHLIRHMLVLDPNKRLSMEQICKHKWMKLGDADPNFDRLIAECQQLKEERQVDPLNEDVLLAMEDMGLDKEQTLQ
T1 sequence (P57059 whole entry): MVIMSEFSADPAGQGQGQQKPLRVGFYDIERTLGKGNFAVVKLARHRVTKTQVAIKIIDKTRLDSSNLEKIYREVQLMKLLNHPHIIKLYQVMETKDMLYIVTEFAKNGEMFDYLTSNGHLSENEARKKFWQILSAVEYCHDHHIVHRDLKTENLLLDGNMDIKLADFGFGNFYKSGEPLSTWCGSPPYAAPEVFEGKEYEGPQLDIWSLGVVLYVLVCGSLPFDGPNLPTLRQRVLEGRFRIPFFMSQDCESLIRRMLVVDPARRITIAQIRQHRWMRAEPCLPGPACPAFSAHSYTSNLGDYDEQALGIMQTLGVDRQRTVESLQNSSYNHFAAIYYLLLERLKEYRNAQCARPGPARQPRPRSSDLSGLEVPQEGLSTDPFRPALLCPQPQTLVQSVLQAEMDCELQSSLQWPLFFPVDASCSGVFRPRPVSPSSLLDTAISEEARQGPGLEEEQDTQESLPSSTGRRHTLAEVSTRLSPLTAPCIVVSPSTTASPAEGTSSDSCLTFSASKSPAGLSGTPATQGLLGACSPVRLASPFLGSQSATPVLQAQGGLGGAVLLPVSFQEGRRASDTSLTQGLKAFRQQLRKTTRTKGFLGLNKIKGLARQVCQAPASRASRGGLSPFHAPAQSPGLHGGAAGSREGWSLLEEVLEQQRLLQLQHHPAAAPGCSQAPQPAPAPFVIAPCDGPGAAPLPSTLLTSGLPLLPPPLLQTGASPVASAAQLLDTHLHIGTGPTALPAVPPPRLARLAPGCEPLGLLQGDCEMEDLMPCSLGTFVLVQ

Consider `COc1cc(-c2cnn3cc(C(C)(C)C#N)ccc23)cc(OC(F)F)c1C(=O)N[C@@H]1C[C@@H]1F` (racemic) [Cpd 233, 4-[6-(1-cyano-1-methyl-ethyl)pyrazolo[1,5-a]pyridin-3-yl]-2-(difluoromethoxy)-N-(2-fluorocyclopropyl)-6-methoxy-benzamide], for which the EC50 in assay [1] lay in the range of 100 to 1000 nM. In assay [2], the maximal fold induction is less than 1.5.

Consider `COc1cc(-c2cnc3cc(C4(C#N)CCCC4)ccn23)cc(OC(F)F)c1C(=O)NC1CC1` [Cpd 53, 4-[7-(1-cyanocyclopentyl)imidazo[1,2-a]pyridin-3-yl]-N-cyclopropyl-2-(difluoromethoxy)-6-methoxy-benzamide], for which the IC50 was greater than 500 nM at SIK1, greater than 500 nM on SIK2 and 0.01 to 10 nM at SIK3. In assay [3], the EC50 fell in the range of 100 to 1000 nM.

In assay [1], `COc1cc(-c2cnn3cc(C(C)(C)C#N)ccc23)cc(OC(F)F)c1C(=O)N[C@H]1C[C@H]1F` [Cpd 234, 4-[6-(1-cyano-1-methyl-ethyl)pyrazolo[1,5-a]pyridin-3-yl]-2-(difluoromethoxy)-N-[(1S,2R)-2-fluorocyclopropyl]-6-methoxy-benzamide] showed an EC50 of 100 to 1000 nM. In addition, the maximal fold induction in assay [2] was less than 1.5.

As for `COc1cc(-c2cnc3cc(C4CCN(C)CC4)ccn23)cc(OC(F)F)c1C(=O)NC1CC1` [Cpd 68, N-cyclopropyl-2-(difluoromethoxy)-6-methoxy-4-[7-(1-methyl-4-piperidyl)imidazo[1,2-a]pyridin-3-yl]benzamide], the IC50 against SIK1 is greater than 500 nM; at SIK2, 10 to 100 nM; against SIK3, 0.01 to 10 nM. For the same compound, the EC50 in assay [3] is 1000 to 5000 nM.

On to `COc1cc(-c2cnc3cc(C4CCCN(C)C4)ccn23)cc(OC(F)F)c1C(=O)NC1CC1` (stereo not drawn) [Cpd 67, N-cyclopropyl-2-(difluoromethoxy)-6-methoxy-4-[7-(1-methyl-3-piperidyl)imidazo[1,2-a]pyridin-3-yl]benzamide], for which the IC50 on SIK1 is greater than 500 nM; against SIK2, 10 to 100 nM; on SIK3, 0.01 to 10 nM. The EC50 in assay [3] fell in the range of 100 to 1000 nM.

Take `COc1cc(-c2cnc3cc(C(C)(C)OC)ccn23)cc(OC(F)F)c1C(=O)NC1CC1` [Cpd 120, N-cyclopropyl-2-(difluoromethoxy)-6-methoxy-4-[7-(1-methoxy-1-methyl-ethyl)imidazo[1,2-a]pyridin-3-yl]benzamide]: the values for the IC50 against SIK1, against SIK2 and against SIK3 were greater than 500 nM, greater than 500 nM and 0.01 to 10 nM, respectively. Also, the EC50 in assay [3] fell in the range of 100 to 1000 nM.

In the case of `COc1cc(-c2cnc3cc(C(C)(O)C(C)C)ccn23)cc(OC(F)F)c1C(=O)NC1CC1` (stereo not drawn) [Cpd 135, N-cyclopropyl-2-(difluoromethoxy)-4-[7-(1-hydroxy-1,2-dimethyl-propyl)imidazo[1,2-a]pyridin-3-yl]-6-methoxy-benzamide], the values for the IC50 against SIK1, at SIK2 and at SIK3 were greater than 500 nM, greater than 500 nM and 10 to 100 nM, respectively. Besides, in assay [3], the EC50 lay in the range of 100 to 1000 nM.

For orientation: EC50 means the midpoint of the concentration-response curve. As usually defined, the IC50 is the concentration that inhibits the measured activity by half. A high value points to weaker potency in that assay.

For the origin of these results see US12391679B2, “Benzamide-substituted bicyclic imidazo- and pyrazolo-fused -pyridine, -pyrimide, and -pyridazine compounds for treatment of inflammatory diseases” (ONCO3R Therapeutics BV, priority 2019, dated 2025).
